Assay results reported in PMC6720883, “In Vitro Inhibitory Effects of APINACA on Human Major Cytochrome P450, UDP-Glucuronosyltransferase Enzymes, and Drug Transporters” (Molecules, 2019).
Read-outs that look alike come from different tables or passages of the source.

Experiments:
CYP3A4 [1] = biological target: T1, CYP3A4 (Homo sapiens, UniProt P08684); conditions: cited from earlier work
OATP1B1 = biological target: T2, OATP1B1 (Homo sapiens, UniProt Q9Y6L6); experiment: Uptake of [3-H]estrone-3-sulfate in HEK293-OATP1B1 cells; type: in vitro ADME; conditions: HEK293-OATP1B1 cells; 0.1 μM [3-H]estrone-3-sulfate; 5 min uptake
T2 construct: host or cells: HEK293 (transient overexpression)
T2 sequence (Q9Y6L6 1-691): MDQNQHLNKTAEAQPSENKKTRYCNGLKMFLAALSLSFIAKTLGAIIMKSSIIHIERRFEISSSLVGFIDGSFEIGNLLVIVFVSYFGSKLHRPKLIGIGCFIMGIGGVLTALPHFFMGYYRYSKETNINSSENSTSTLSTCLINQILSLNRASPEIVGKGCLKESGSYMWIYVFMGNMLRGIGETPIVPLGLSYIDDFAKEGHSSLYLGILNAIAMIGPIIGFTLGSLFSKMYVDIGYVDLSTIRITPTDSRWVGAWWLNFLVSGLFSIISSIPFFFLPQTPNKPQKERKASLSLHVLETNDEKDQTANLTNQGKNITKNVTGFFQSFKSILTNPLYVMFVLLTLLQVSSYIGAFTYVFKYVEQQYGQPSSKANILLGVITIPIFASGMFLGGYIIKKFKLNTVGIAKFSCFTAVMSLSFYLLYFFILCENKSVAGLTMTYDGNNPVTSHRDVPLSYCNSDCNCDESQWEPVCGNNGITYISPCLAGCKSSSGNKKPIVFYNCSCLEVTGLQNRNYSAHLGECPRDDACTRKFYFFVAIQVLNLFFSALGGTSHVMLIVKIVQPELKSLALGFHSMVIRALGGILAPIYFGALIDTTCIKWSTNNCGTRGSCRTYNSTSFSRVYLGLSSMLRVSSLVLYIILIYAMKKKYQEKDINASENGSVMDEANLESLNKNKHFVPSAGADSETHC
Experimental: To examine the effects of APINACA and typical inhibitors on transporter activity, the uptake of a probe substrate into HEK293 cells overexpressing the respective solute carrier transporters was measured in the presence of APINACA (final concentrations of 0–250 μM) or typical inhibitors for 5 min. The concentrations and probe substrates were selected as follows: 0.1 μM [3-H]MPP^+ (for OCT1 and OCT2), 0.1 μM [3-H]PAH (for OAT1), 0.1 μM [3-H]ES (for OAT3 and OATP1B1), and 0.1 μM [3-H]EG (for OATP1B3).
(§1) 12.5 (Systat Software, Inc.; San Jose, CA, USA). […] 1.1 (Systat Software, Inc.).

OATP1B3 = OATP1B3 (Homo sapiens, UniProt Q9NPD5)
OATP1B3, sequence (Q9NPD5 whole entry): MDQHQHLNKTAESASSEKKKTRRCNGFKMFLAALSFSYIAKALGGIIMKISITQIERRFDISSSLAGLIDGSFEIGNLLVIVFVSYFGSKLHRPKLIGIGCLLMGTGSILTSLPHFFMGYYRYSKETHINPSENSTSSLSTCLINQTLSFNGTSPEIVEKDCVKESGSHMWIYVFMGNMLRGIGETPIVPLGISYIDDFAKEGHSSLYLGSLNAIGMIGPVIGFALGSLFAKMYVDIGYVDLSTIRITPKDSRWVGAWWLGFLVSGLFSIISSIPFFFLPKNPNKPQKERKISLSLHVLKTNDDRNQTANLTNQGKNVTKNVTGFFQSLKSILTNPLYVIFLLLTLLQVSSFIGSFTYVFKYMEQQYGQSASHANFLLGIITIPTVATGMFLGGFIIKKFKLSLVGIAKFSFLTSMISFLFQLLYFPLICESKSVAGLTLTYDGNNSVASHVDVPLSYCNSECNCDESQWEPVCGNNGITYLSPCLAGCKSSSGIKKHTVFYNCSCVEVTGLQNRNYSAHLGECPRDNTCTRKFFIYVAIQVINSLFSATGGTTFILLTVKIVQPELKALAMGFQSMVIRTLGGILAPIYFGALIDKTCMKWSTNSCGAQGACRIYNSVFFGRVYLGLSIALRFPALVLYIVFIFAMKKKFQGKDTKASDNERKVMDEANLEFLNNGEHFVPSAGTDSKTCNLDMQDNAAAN

UGT1A1 = biological target: T3, UGT1A1 (Homo sapiens, UniProt P22309); experiment: biochemical; type: in vitro ADME
T3 construct: […]; tissue Corning Life Sciences
T3 sequence (P22309 26-533): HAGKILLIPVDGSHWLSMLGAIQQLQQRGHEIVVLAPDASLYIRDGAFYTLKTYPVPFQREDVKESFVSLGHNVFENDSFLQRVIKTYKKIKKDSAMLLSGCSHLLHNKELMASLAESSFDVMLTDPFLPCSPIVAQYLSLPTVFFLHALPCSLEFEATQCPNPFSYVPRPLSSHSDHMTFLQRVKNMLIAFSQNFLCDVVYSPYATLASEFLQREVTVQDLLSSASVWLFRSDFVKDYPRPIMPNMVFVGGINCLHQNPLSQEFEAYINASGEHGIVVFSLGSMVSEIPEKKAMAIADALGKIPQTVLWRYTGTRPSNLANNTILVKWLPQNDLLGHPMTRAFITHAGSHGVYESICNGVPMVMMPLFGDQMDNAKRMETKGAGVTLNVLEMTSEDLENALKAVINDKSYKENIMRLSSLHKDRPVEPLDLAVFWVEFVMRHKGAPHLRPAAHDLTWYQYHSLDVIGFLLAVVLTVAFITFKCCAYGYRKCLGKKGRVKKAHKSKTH
From the text: as §1

UGT1A9 [2] = biological target: T4, UGT1A9 (Homo sapiens, UniProt O60656); set-up: […]; tissue Corning Life Sciences; method as in PMID 23230132; conditions: human liver microsomes; read-out: Ki for inhibition of UGT1A9-mediated ethanol glucuronidation; cited from earlier work
T4 sequence (O60656 26-530): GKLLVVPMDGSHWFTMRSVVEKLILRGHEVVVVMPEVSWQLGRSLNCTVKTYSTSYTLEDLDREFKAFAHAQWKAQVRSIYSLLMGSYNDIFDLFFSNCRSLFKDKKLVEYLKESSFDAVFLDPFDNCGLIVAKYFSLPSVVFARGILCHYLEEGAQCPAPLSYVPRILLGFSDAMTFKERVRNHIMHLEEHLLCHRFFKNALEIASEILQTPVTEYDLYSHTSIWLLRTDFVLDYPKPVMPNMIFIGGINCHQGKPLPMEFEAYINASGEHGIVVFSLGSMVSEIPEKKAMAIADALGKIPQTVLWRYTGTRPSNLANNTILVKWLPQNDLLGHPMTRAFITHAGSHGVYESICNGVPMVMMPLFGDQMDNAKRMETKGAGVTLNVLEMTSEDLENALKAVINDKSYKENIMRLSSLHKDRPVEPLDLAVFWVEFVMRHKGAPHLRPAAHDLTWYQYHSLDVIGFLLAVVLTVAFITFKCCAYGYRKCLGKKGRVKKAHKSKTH

CYP3A4 [3] = biological target: T1, CYP3A4; set-up: method as in PMID 22490230; conditions: human liver microsomes; cited from earlier work
UGT1A9 [4] = biological target: T4, UGT1A9; experiment: Inhibition of UGT1A9-catalyzed mycophenolic acid glucuronidation in human liver microsomes; type: in vitro ADME; set-up: […]; tissue Corning Life Sciences; conditions: pooled human liver microsomes; 0.2 µM mycophenolic acid; without preincubation (●); read-out: IC50 UGT1A9 mycophenolic acid glucuronidation, without preincubation
From the text: as §1

T1 sequence (P08684 2-503): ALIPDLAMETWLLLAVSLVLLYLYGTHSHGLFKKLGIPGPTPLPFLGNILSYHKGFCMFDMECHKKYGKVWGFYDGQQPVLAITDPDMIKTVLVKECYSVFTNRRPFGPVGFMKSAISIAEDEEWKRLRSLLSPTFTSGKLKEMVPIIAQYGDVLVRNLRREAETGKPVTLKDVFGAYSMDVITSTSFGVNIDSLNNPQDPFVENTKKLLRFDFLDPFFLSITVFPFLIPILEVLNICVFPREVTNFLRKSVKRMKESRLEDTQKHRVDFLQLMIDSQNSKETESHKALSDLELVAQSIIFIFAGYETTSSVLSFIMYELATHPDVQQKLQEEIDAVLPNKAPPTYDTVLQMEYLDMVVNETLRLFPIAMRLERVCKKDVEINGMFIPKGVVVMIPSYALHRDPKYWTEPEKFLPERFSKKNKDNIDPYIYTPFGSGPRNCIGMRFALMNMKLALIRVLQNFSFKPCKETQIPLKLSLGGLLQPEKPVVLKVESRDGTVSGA

For `O=C(c1cccc2ccccc12)c1cn(CCCCCF)c2ccccc12` [AM-2201], the Ki (CYP3A4 [1]; competitive inhibition, read-out: Ki for competitive inhibition of CYP3A4-catalyzed midazolam 1′-hydroxylation) is listed as 4 µM.

In the case of `CCc1ccc(C(=O)c2cn(CCCCCF)c3ccccc23)c2ccccc12` [EAM-2201], the “kinact for CYP3A4-catalyzed midazolam 1′-hydroxylation” value (CYP3A4 [1]; human liver microsomes) is given as 0.0250 min⁻¹.

In the case of `Cc1ccc(C(=O)c2cn(CCCCCF)c3ccccc23)c2ccccc12` [MAM-2201], the Ki (CYP3A4 [1]; noncompetitive inhibition, read-out: Ki for noncompetitive inhibition of CYP3A4-catalyzed midazolam 1′-hydroxylation) is given as 5.4 µM.

Work on `CO[C@H]1/C=C/O[C@@]2(C)Oc3c(C)c(O)c4c(O)c(c(/C=N/N5CCN(C)CC5)c(O)c4c3C2=O)NC(=O)/C(C)=C\C=C\[C@H](C)[C@H](O)[C@@H](C)[C@@H](O)[C@@H](C)[C@H](OC(C)=O)[C@@H]1C` [Rifampin, reference compound] yielded an IC50 (OATP1B1) of 22.8 µM and an IC50 (OATP1B3) of 0.99 µM.

In the case of `COC(=O)N[C@H](C(=O)N[C@@H](Cc1ccccc1)[C@@H](O)CN(Cc1ccc(-c2ccccn2)cc1)NC(=O)[C@@H](NC(=O)OC)C(C)(C)C)C(C)(C)C` [atazanavir, reference compound], the IC50 (UGT1A1) is reported as 0.7 µM.

In the case of `C=C(C)[C@@H]1CCC(C)=C[C@H]1c1c(O)cc(CCCCC)cc1O` [cannabidiol], the Ki (UGT1A9 [2]) is given as 9.9 µM.

In the case of `CC[C@H]1OC(=O)[C@H](C)[C@@H](O[C@H]2C[C@@](C)(OC)[C@@H](O)[C@H](C)O2)[C@H](C)[C@@H](O[C@@H]2O[C@H](C)C[C@H](N(C)C)[C@H]2O)[C@](C)(OC)C[C@@H](C)C(=O)[C@H](C)[C@@H](O)[C@]1(C)O` [clarithromycin], the “inactivation efficiency (kinact/Ki) for time-dependent inhibition of CYP3A4” value (CYP3A4 [3]) is given as 46.7 M⁻¹ s⁻¹.

With `C=CCc1ccc(O)c(-c2cc(CC=C)ccc2O)c1` [magnolol, reference compound] the IC50 (UGT1A9 [4]) was 9.7 µM.
